Assay results from patent publication US20240237526A1, “ORGANIC COMPOUND, LIGHT-EMITTING DEVICE, LIGHT-EMITTING APPARATUS, AND ELECTRONIC DEVICE” (SEMICONDUCTOR ENERGY LABORATORY CO., LTD., priority 2022, published 2024).

Experiment: solubility test in water by visual inspection
Format: physicochemical
Settings: room temperature (RT), one atmosphere, ultrasonic irradiation
Experimental: In this example, the solubility of the organic compound that can be used in the display apparatus of one embodiment of the present invention is described. Note that the solubility test was conducted at a pressure of one atmosphere at room temperature (RT).
(§1) Into a 110 mL sample bottle, 1.22 mg of 2tiiSF was put and 10 mL of water was added thereto. This mixture was irradiated with ultrasonic waves for one minute. A precipitated white powder was found by visual inspection for an insoluble residue. After further addition of 10 mL of water and one-minute ultrasonic wave irradiation, a precipitated white powder was found by visual inspection. This procedure was repeated until the dissolution was confirmed by visual inspection.
The precipitated white powder was found until the total amount of water reached 100 mL.
as §1, with “1.08” for “1.22”, “2hppSF” for “2tiiSF”
The precipitated white powder was found until the total amount of water reached 50 mL. […]

weight which can be dissolved in 1.0 mL of water: less than 0.012 mg
Compound: c1ccc2c(c1)-c1ccccc1C21c2ccccc2-c2ccc(N3CCN4CCN=C43)cc21 [2tiiSF, 1-(9,9′-spirobi[9H-fluoren]-2-yl)-2,3,5,6-tetrahydro-1H-imidazo[1,2-a]imidazole]
